Measurements: ChEMBL document CHEMBL4052742, “Optimization of 1H-indazol-3-amine derivatives as potent fibroblast growth factor receptor inhibitors” (Bioorg Med Chem Lett, 2017)

Assays:
SNU-16 = experiment: Antiproliferative activity against human SNU16 cells after 72 hrs by CCK-8 assay; settings: SNU-16, 72 h
KG-1 = experiment: Antiproliferative activity against human KG1 cells after 72 hrs by CCK-8 assay; settings: KG-1, 72 h
[1] = target: Fibroblast growth factor receptor 2 (Homo sapiens, UniProt P21802); experiment: Inhibition of recombinant FGFR2 (unknown origin) using poly (Glu,Tyr)4:1 as substrate after 60 mins by ELISA based spectrophotometric analysis
Sequence of Fibroblast growth factor receptor 2 (P21802 whole entry): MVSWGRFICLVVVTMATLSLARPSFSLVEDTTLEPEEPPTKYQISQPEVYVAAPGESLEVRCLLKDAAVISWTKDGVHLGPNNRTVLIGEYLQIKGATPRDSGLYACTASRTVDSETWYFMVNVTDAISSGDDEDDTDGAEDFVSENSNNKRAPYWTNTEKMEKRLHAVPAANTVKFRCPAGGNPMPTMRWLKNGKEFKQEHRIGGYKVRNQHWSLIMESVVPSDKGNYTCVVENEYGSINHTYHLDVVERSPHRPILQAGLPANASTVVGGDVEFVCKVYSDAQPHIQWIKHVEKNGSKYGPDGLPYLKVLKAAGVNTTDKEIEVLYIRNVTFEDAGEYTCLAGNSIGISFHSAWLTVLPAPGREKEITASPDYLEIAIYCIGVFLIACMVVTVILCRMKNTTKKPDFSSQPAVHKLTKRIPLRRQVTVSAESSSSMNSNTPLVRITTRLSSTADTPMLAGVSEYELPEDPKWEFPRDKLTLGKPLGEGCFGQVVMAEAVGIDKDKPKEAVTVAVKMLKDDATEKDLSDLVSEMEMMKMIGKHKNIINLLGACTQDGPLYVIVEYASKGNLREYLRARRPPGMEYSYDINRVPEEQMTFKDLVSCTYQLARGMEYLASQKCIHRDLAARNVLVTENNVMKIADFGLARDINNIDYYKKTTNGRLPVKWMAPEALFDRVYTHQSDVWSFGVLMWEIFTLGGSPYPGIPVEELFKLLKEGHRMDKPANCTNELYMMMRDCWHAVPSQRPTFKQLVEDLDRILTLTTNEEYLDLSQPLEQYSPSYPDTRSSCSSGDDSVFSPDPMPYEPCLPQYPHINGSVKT

[2] = target: Fibroblast growth factor receptor 1 (Homo sapiens, UniProt P11362); experiment: Inhibition of recombinant FGFR1 (unknown origin) using poly (Glu,Tyr)4:1 as substrate after 60 mins by ELISA based spectrophotometric analysis
Sequence of Fibroblast growth factor receptor 1 (P11362 whole entry): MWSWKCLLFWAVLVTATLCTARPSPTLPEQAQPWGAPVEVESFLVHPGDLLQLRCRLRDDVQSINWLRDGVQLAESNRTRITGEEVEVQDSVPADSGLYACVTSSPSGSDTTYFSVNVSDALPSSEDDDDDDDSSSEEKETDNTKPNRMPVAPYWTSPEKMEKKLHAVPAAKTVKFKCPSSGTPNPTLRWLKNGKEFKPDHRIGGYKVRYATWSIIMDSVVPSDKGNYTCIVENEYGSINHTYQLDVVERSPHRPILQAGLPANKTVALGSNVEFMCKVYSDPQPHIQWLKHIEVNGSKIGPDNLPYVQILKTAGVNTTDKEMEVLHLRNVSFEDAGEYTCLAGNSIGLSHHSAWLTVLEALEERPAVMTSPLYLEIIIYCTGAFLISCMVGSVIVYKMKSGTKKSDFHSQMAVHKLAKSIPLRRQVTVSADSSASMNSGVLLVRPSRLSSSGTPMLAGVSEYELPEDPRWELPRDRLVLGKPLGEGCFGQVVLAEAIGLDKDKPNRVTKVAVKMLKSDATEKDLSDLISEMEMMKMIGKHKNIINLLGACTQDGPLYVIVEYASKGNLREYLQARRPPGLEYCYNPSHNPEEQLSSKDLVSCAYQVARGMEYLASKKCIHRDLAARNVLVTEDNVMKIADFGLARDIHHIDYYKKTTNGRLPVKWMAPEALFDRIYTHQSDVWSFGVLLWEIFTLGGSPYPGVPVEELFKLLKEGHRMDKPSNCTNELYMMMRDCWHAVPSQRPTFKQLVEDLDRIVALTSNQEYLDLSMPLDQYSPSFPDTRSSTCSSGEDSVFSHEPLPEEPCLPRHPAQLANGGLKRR

Row | SMILES | IC50 (SNU-16) | IC50 (KG-1) | IC50 [1] | IC50 [2]
1 | CCN1CCN(c2ccc(C(=O)Nc3n[nH]c4cc(-c5cccc(OC)c5F)ccc34)cc2C(F)(F)F)CC1 | > 1 µM | > 1 µM | > 1 µM | > 1 µM
2 | CCN1CCN(c2ccc(C(=O)Nc3n[nH]c4cc(-c5c(F)cc(F)c(OC)c5F)ccc34)cc2)CC1 | > 1 µM | > 1 µM | – | –
3 | CCN1CCN(c2ccc(C(=O)Nc3n[nH]c4cc(-c5cccc(OC)c5F)ccc34)cc2)CC1 | 0.591 µM | 0.284 µM | – | –
4 | COCCN1CCN(c2ccc(C(=O)Nc3n[nH]c4cc(-c5c(F)ccc(OC)c5F)ccc34)cc2)CC1 | 0.431 µM | 0.0473 µM | – | –
5 | CCN1CCN(c2ccc(C(=O)Nc3n[nH]c4cc(-c5cccc(OC)c5F)c(F)cc34)cc2)CC1 | > 1 µM | 0.684 µM | – | –
6 | COc1ccc(F)c(-c2ccc3c(NC(=O)c4ccc(N5C[C@@H](C)N[C@@H](C)C5)cc4)n[nH]c3c2)c1F | 0.582 µM | 0.348 µM | – | –
7 | COc1ccc(F)c(-c2ccc3c(NC(=O)c4ccc(N5CCCN(C)CC5)cc4)n[nH]c3c2)c1F | 0.102 µM | 0.0515 µM | – | –
8 | COc1cccc(-c2ccc3c(NC(=O)c4ccc(N5CCN(C)CC5)c(F)c4)n[nH]c3c2)c1F | > 1 µM | > 1 µM | – | –
9 | COc1ccc(F)c(-c2ccc3c(NC(=O)c4ccc(N(C)CCN(C)C)cc4)n[nH]c3c2)c1F | 0.366 µM | 0.333 µM | – | –
10 | COc1cccc(-c2ccc3c(NC(=O)c4ccc(N5CCN(C)CC5)cc4F)n[nH]c3c2)c1F | > 1 µM | > 1 µM | > 1 µM | > 1 µM
11 | COc1ccc(F)c(-c2ccc3c(NC(=O)c4ccc(N5CCN(C)CC5)cc4)n[nH]c3c2)c1F | 0.0356 µM | 0.0415 µM | < 0.0041 µM | –
12 | COCCN1CCN(c2ccc(C(=O)Nc3n[nH]c4cc(-c5c(F)cc(F)c(OC)c5F)ccc34)cc2)CC1 | > 1 µM | > 1 µM | – | –
13 | COc1ccc(F)c(-c2ccc3c(NC(=O)c4ccc(N5CCN(C(C)=O)CC5)cc4)n[nH]c3c2)c1F | 0.322 µM | 0.595 µM | 0.0029 µM | –
14 | CCN1CCN(c2ccc(C(=O)Nc3n[nH]c4cc(-c5cccc(OC)c5F)cc(F)c34)cc2)CC1 | > 1 µM | > 1 µM | – | –
15 | CCN1CCN(c2ccc(C(=O)Nc3n[nH]c4cc(-c5c(F)ccc(OC)c5F)ccc34)cc2)CC1 | 0.0774 µM | 0.0253 µM | – | < 0.0041 µM
16 | COc1cc(CCc2cc(NC(=O)c3ccc(N4C[C@@H](C)N[C@@H](C)C4)cc3)n[nH]2)cc(OC)c1 [FEXAGRATINIB] | 0.0034 µM | 0.0033 µM | – | –
